Here are results for one compound from patent US10106540B2, “HDAC6 inhibitors and their uses” (Universität Regensburg, priority 2014, dated 2018).

Entries after “also recorded” stand apart in the source; their conditions may differ.

The subject of assay [1] is PRXF DU-145. The experiment in a line: In vitro activity against solid tumor cell lines (FACS analysis method a). The format is cell-based. The conditions noted are these: Homo sapiens, Prostate. The method, then:
(§1) Human prostate cancer cell lines PRXF DU-145, PRXF LNCaP, PRXF PC-3M (Oncotest GmbH, Freiburg, Germany)
(§2) The assay is carried out as described in Pietschmann et al., 2012 and Brandl et al. 2012. Briefly, 10^5 cells were fixed in 1 ml 70% EtOH with 0.05% Tween-20 overnight at 4° C. The following day, cells were washed with 3 ml 38 mM sodium citrate, pH 7.4, and incubated for 20 min at 37° C. in 0.5 ml 38 mM sodium citrate, pH 7.4, supplemented with 50 μg/ml propidium iodide and 10 μg/ml RNase-A. DNA contents of the cells were measured by fluorescence-activated cell sorter (FACS). This method allows detection of the apoptotic subG1-fraction, which has a DNA content below 2n due to apoptotic cleavage of DNA. Equally, the cell cycle profile can be assessed with this method.
(§3) The novel HDAC6 inhibitors were tested in a panel of tumor cell lines for cytostatic/toxic activities (see Table 2).
A general note: Flow cytometry measures light scatter and fluorescence of single cells or particles in a stream.

Assay [2] concerns PRXF LNCaP. The description is as above. It counts as cell-based. The conditions noted are these: Homo sapiens, Prostate. The method, then:
as §1, §2, §3

The test system of assay [3] is PRXF PC-3M. The description is as above. The format is cell-based. The note with it: Homo sapiens, Prostate. The method, then:
as §1, §2, §3

The test system of assay [4] is UXF 1138. The assay is described as above. It counts as cell-based. The note with it: Homo sapiens, Uterus. The procedure:
Human uterus cancer cell line UXF 1138 (Oncotest GmbH, Freiburg, Germany)
as §2, §3

For assay [5], the system named is 42 solid tumor cell lines. The experiment in a line: In vitro activity against solid tumor cell lines, mean of all lines. The format is cell-based. The note with it: average IC50 value from all 42 measurements.
Assay [6] concerns BV-173 cells. Kind of assay: Western blot analysis in BV-173 cells. The format is cell-based, human. The method, then:
BV-173 cells (BCR-ABL positive leukemic cells) were used as control cells left (Ctl) or with 1 μM MARB1, 2 μM MARB2 or 2 mM VPA treated for 24 h. These concentrations were chosen to achieve equipotent effects on cells which was in preliminary tests (data not shown). Shown are acetylated tubulin-α, α-tubulin, acetylated histone H3, WT1, survivin and β-actin. The total amount of α-tubulin and β-actin were used as loading control. Mr, relative molecular weight in kilodaltons. The degradation of WT1 in patients treated with VPA cells bases on a loss of WT1 mRNA and the increased degradation of WT1 protein by induction of the E2 ubiquitin conjugase UbcH8.
(§4) Flow cytometric analysis of the induction of (A) apoptotic DNA fragmentation and (B) Cell cycle analysis of BV 173 cells. The cells were kept as control cells (Ctl), treated with 1 μM or 2 μM MARB1 MARB2 and 0.2 or 0.5 μM imatinib for 48 h. The data was received by two independent experiments. The individual compounds show only slight effects in the used concentrations; whereas their combination can effectively kill leukemic cells. (C) Western blot analysis on data from the BCR-ABL, acetylated tubulin and α-sliced PARP1; the total amount of tubulin-α serves as a loading control. BV-173 cells were treated for 24 h with 1 μM, or 2 μM MARB1 or MARB2.
(§5) Human leukemia cell lines BV 173 and K562 with BCR-ABL mutation (Leibniz Institute DSMZ—German Collection of Microorganisms and Cell Cultures, DSMZ Accession Nos: ACC-20 and ACC-10).
The assay is carried out as described in Buchwald et al. 2010 and Buchwald et al. 2013. Briefly, cells were collected and lysed in NET-N buffer (150 mM NaCl, 1 mM EDTA, 50 mM Tris-HCl (pH 7.8), 0.5% Nonidet P-40 (NP-40), 1 mM phenylmethylsulfonyl fluoride, 0.5 mg/ml leupeptin and 0.5 mg/ml pepstatin) followed by mild sonification on ice. Protein lysate ([…]) was boiled in Laemmli buffer and separated on SDS-polyacrylamide gel electrophoresis for western blotting with specific antibodies. All lysates were assessed by Bradford assay for protein concentrations.

For assay [7], the system named is BV-173 cells. The experiment in a line: Flow cytometric analysis of BV-173 cells, combination with imatinib. The conditions noted are these: BV-173, 1 μM MARB1 or 2 μM MARB2 combined with 0.2 or 0.5 μM imatinib, 48 h. It counts as cell-based, human. The procedure: as §4, §5
The assay is carried out as described in Pietschmann et al., 2012 and Brandl et al. 2012. Briefly, 10^5 cells were fixed in 1 ml 70% EtOH with 0.05% Tween-20 overnight at 4° C. The following day, cells were washed with 3 ml 38 mM sodium citrate, pH 7.4, and incubated for 20 min at 37° C. in 0.5 ml 38 mM sodium citrate, pH 7.4, supplemented with 50 μg/ml propidium iodide and 10 μg/ml RNase-A. DNA contents of the cells were measured by fluorescence-activated cell sorter (FACS). […] Equally, the cell cycle profile can be assessed with this method.

Assay [8] relates to MV4-11, BV173 and HCT116 cells. Kind of assay: Dose and time dependency of MARB1, Western blot method b. The format is cell-based, human. The conditions noted are these: 50 nM. The method, then:
Cells were seeded on a 6 well plate and incubated as shown. The blots were quantified with Image Studio Lite Version 5.0. (A) 1 Mio cells per sample were seeded and after 2 h adaption time the cells were stimulated as shown, followed by incubation and harvesting of the cells. Tubulin and HSP90 were used as loading control. […] HSP90 and Tubulin were used as loading control. n=1 (C) 200,000 cells were seeded in a 6 well plate and incubated over night for adhesion. B-Actin was used as loading control. n=1
For the examination of the time dependency of MARB1 MV4-11, BV173 and HCT116 cells were tested by western blot. All cells were seeded on a 6 well plate. The blots were quantified with Image Studio Lite Version 5.0. (A) 1 Mio cells per sample were seeded and after 2 h adaption time the cells were stimulated as shown. Following the incubation, the cells were harvested as described earlier. Tubulin and HSP90 were used as loading control. […] HSP90 was used as loading control. […]
Western Blot analysis method b was used for the blots illustrated in FIGS. 6 to 9 and 11: Equal amounts of proteins were separated with a sodium dodecyl sulfate-polyacrylamide gel electrophoresis (SDS-PAGE) using an electrophoresis buffer by Laemmli with 1% SDS. […] Fluorescence coupled secondary antibodies (LI-COR) were used and the signal was measured on the Odyssey to detect the proteins.

[9] abbreviates: BV-173, 1 μM MARB1, 2 μM MARB2, 24 h.

In general, IC50 refers to the midpoint of a concentration-inhibition curve. Turning to `CN1C(=O)C2CN(Cc3c2c2ccccc2n3Cc2ccc(C(=O)NO)cc2)C1=O` (stereo not shown) [MARB1, N-Hydroxy-4-((4-methyl-3,5-dioxo-3,4,5,6-tetrahydro-2,6-methano[1,3]diazocino[5,6-b]indol-11(1H)-yl)methyl)benzamide], the half-inhibitory concentration (IC50) in assay [1] came to 2340 nM; in assay [2], 1620 nM; in assay [3], 5140 nM; in assay [4] it was 1580 nM; in assay [5], 5030 nM. In assay [6] (setting [9]), the “acetylation of tubulin-α” value was “hyperacetylation of tubulin-α”. Besides, the expression of survivin result in assay [6] (setting [9]) was “reduction of the expression of survivin”. Further, the “acetylation of histone H3” value in assay [6] (BV-173, 1 μM MARB1, 2 μM MARB2 or 2 mM VPA, 24 h) is reported as “Neither MARB1, nor MARB2 cause these alterations”. Besides, in assay [6] (BV-173, compound alone, 24 h), the “BCR-ABL expression on the protein level” value is “do not affect”. The “BCR-ABL stabilization/degradation in combination with imatinib” value in assay [6] (BV-173, with imatinib, 24 h) is listed as “significantly inhibit the unwanted stabilization of BCR-ABL; also recorded: significant degradation of BCR-ABL”. For the same compound, the “apoptotic and necrotic sub-G1 populations” value in assay [7] is “significantly increases”. Moreover, the acetylated tubulin result in assay [8] (incubation for 30 min) is reported as “increase of acetylated tubulin is detectable”. Besides, in assay [8] (short time course), the “inhibition compared with Tubastatin A” value was “faster and at later time points much more effective than Tubastatin A”.
